Like-named read-outs stand apart in the source and are kept apart here.
Key:
[1] = system: human hepatoma cells (HepG2); assay: MTT tumor cell proliferation inhibition test, HepG2; type: cell-based; conditions: read-out: Half Inhibitory Concentration IC50 HepG2
Experimental: (§1) The compounds of the present invention were subjected to tumor cell proliferation inhibition test, and conventional MTT method was used.
(§2) Cell lines: human hepatoma cells (HepG2), human lung cancer cells (A-549), human gastric cancer cells (SGC-7901). The culture medium was DMEM+15% NBS+double antibody.
(§3) Sample solution preparation: after dissolving with DMSO (Merck), PBS (−) was added to obtain 100 μmol/L solution or homogeneous suspension. The solution was diluted with PBS (−) in DMSO to a final concentration of 0.1, 1, 10, 20, 40, 60, 80, 100 μmol/L.
(§4) Gossypol was used as control solution, prepared under the same condition.
(§5) Cell culture: adherent growth Tumor cells were cultured in 1640 medium containing 10% inactivated neonatal bovine serum and penicillin, streptomycin (1 million U/L), placed in carbon dioxide incubator at 37° C., 5% CO2, and saturated humidity. Cells were treated serially passaged 2-3 times. The first culture was washed with PBS 2 times, and digested with trypsin. Fresh culture medium was added evenly, cells were adjusted to a appropriate concentration and transferred into a new culture flask. Cell in an exponential phase were chosen for the tests.
(§6) MTT Assay for Cell Viability and IC50 Determination
(§7) Experimental Principle: Living cells mitochondria in the dehydrogenase can reduce yellow MTT to water-insoluble blue-violet product MT (MTT formazan), deposited in the cells. The amount of production is proportional to the number of living cells. […] DMSO can dissolve blue violet crystals, and the color depth is proportional to the amount contained, so the absorbance measured by the microplate reader can reflect the cell viability.
(§8) Methods: The exponential phase cells were digested and counted and seeded in 96-well plates at a density of 2×10^4/mL at 100 μl per well. After 24 hours of incubation, the cells to be tested were treated with 0.1, 1, 10, 20, 40, 60, 80, 100 μmol/L of the compounds. Each experimental group had 5 wells in each concentration, and the culture medium containing 0.4% DMSO was used as control. After 48 hours, the supernatant was discarded, and 100 μl of MTT ((2-(4,5-dimethyl-2-thiazolyl)-3,5-diphenyl-2H-[…]) (1 mg/mL) was added to each well. After another 4 hours, the supernatant was discarded, and 100 μl of DMSO was added to each well. After mixing, the absorbance was measured at 570 nm using a microplate reader. An IC50 calculation software was used to determine the half inhibitory concentration (IC50).

[2] = system: human lung cancer cells (A-549); assay: MTT tumor cell proliferation inhibition test, A-549; type: cell-based; conditions: A549 cells, 48 hours treatment, read-out: Half Inhibitory Concentration IC50 A549
Experimental: as §1, §2, §3, §4, §5, §6, §7, §8

[3] = system: human gastric cancer cells (SGC-7901); assay: MTT tumor cell proliferation inhibition test, SGC-7901; type: cell-based; conditions: SGC-7901 cells, 48 hours treatment, read-out: Half Inhibitory Concentration IC50 SGC-7901
Experimental: as §1, §2, §3, §4, §5, §6, §7, §8

[4] = system: HepG2, A-549, SGC-7901 tumor cells; assay: MTT tumor cell proliferation inhibition test, summary over the three cell lines; type: cell-based, human; conditions: the three cell lines tested
Experimental: as §1, §2, §3, §4
as §5, with “Cell in an exponential phase were chosen for the tests.” left out
as §7, with “the” for “the cells. The amount of production is proportional to the number of living”
as §8, with “After 24 hours of incubation, the cells to be tested were treated with 0.1, 1, 10, 20, 40, 60, 80, 100 μmol/L of the compounds. Each experimental group had 5 wells in each concentration, and the culture medium containing 0.4% DMSO was used as control.” left out

[5] = HepG2 cells, MTT, 48 hours treatment

| SMILES | IC50 [1, 5] [µM] | IC50 [2] [µM] | IC50 [3] [µM] | melting point [°C] | antitumor activities (in words) [4] | IC50 ([1]; HepG2, 48 h) [µM] |
| --- | --- | --- | --- | --- | --- | --- |
| Cc1cc2c(C(C)C)c(O)c(O)c(/C=N/N=C3\C(=O)Nc4ncccc43)c2c(O)c1-c1c(C)cc2c(C(C)C)c(O)c(O)c(/C=N/N=C3/C(=O)Nc4ncccc43)c2c1O [Compound 1, (3Z,3′E)-3,3′-(((1E,1′E)-(1,1′,6,6′,7,7′-hexahydroxy-5,5′-diisopropyl-3,3′-dimethyl-[2,2′-binaphthalene]-8,8′-diyl)bis(methanylylidene))bis(hydrazine-2,1-diylidene))bis(1,3-dihydro-2H-pyrrolo[2,3-b]pyridin-2-one)] | > 100 | > 100 | > 100 | 186.5 |  |  |
| Cc1cc2c(C(C)C)c(O)c(O)c(/C=N/N=C3\C(=O)N(C)c4ncccc43)c2c(O)c1-c1c(C)cc2c(C(C)C)c(O)c(O)c(/C=N/N=C3/C(=O)N(C)c4ncccc43)c2c1O [Compound 2, (3Z,3′E)-3,3′-(((1E,1′E)-(1,1′,6,6′,7,7′-hexahydroxy-5,5′-diisopropyl-3,3′-dimethyl-[2,2′-binaphthalene]-8,8′-diyl)bis(methanylylidene))bis(hydrazine-2,1-diylidene))bis(1-methyl-1,3-dihydro-2H-pyrrolo[2,3-b]pyridin-2-one)] | 12.5 ± 2.39 | 11.2 ± 2.26 | > 100 |  | good activities |  |
| Cc1cc2c(C(C)C)c(O)c(O)c(/C=N/N=C3\C(=O)N(C(C)C)c4ncccc43)c2c(O)c1-c1c(C)cc2c(C(C)C)c(O)c(O)c(/C=N/N=C3/C(=O)N(C(C)C)c4ncccc43)c2c1O [Compound 4, (3Z,3′E)-3,3′-(((1E,1′E)-(1,1′,6,6′,7,7′-hexahydroxy-5,5′-diisopropyl-3,3′-dimethyl-[2,2′-binaphthalene]-8,8′-diyl)bis(methanylylidene))bis(hydrazine-2,1-diylidene))bis(1-isopropyl-1,3-dihydro-2H-pyrrolo[2,3-b]pyridin-2-one)] | > 100 | 74.1 ± 3.46 | > 100 | 209.1 |  |  |
| Cc1cc2c(C(C)C)c(O)c(O)c(/C=N/N=C3\C(=O)N(Cc4ccccc4)c4ncccc43)c2c(O)c1-c1c(C)cc2c(C(C)C)c(O)c(O)c(/C=N/N=C3/C(=O)N(Cc4ccccc4)c4ncccc43)c2c1O [Compound 5, (3Z,3′E)-3,3′-(((1E,1′E)-(1,1′,6,6′,7,7′-hexahydroxy-5,5′-diisopropyl-3,3′-dimethyl-[2,2′-binaphthalene]-8,8′-diyl)bis(methanylylidene))bis(hydrazine-2,1-diylidene))bis(1-benzyl-1,3-dihydro-2H-pyrrolo[2,3-b]pyridin-2-one)] | 7.94 ± 0.85 | 10.1 ± 1.33 | 12.3 ± 1.43 |  | excellent antitumor activities |  |
| CON1C(=O)/C(=N\N=C\c2c(O)c(O)c(C(C)C)c3cc(C)c(-c4c(C)cc5c(C(C)C)c(O)c(O)c(/C=N/N=C6/C(=O)N(OC)c7ncccc76)c5c4O)c(O)c23)c2cccnc21 [Compound 6, (3Z,3′E)-3,3′-(((1E,1′E)-(1,1′,6,6′,7,7′-hexahydroxy-5,5′-diisopropyl-3,3′-dimethyl-[2,2′-binaphthalene]-8,8′-diyl)bis(methanylylidene))bis(hydrazine-2,1-diylidene))bis(1-methoxy-1,3-dihydro-2H-pyrrolo[2,3-b]pyridin-2-one)] | > 100 | 62.9 ± 2.15 | > 100 | 201.9 |  |  |
| Cc1cc2c(C(C)C)c(O)c(O)c(C=O)c2c(O)c1-c1c(C)cc2c(C(C)C)c(O)c(O)c(C=O)c2c1O [Gossypol] |  |  |  |  |  | 955 ± 0.41 |
| CCN1C(=O)/C(=N\N=C\c2c(O)c(O)c(C(C)C)c3cc(C)c(-c4c(C)cc5c(C(C)C)c(O)c(O)c(/C=N/N=C6/C(=O)N(CC)c7ncccc76)c5c4O)c(O)c23)c2cccnc21 [Compound 3, (3Z,3′E)-3,3′-(((1E,1′E)-(1,1′,6,6′,7,7′-hexahydroxy-5,5′-diisopropyl-3,3′-dimethyl-[2,2′-binaphthalene]-8,8′-diyl)bis(methanylylidene))bis(hydrazine-2,1-diylidene))bis(1-ethyl-1,3-dihydro-2H-pyrrolo[2,3-b]pyridin-2-one)] | 9.92 ± 0.79 | 17.4 ± 0.79 | 13.4 ± 1.51 |  | good activities |  |

— patent US10722500B2, “Gossypol 7-N-isatin Schiff base compounds with antitumor activities and a method of preparing the same” (SHAANXI PANLONG PHARMACEUTICAL GROUP LIMITED BY SHARE LTD., priority 2018, dated 2020)
